Experimental data taken from patent publication US9499493B2, “2,4-pyrimidinediamine compounds and their uses” (Rigel Pharmaceuticals, Inc., priority 2002, dated 2016).

How the values were obtained:
[1] = tested on: cultured human mast cells (CHMC); test: CHMC low cell density ionomycin activation: tryptase assay; type: cell-based
[2] = tested on: cultured human mast cells (CHMC); test: CHMC low cell density IgE activation: tryptase assay; type: cell-based; conditions: anti-IgE
In short: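 Low-density CHMC assay: donor-adjusted 1000-1500 cells/well, MT buffer, 1 hr 37° C preincubation; anti-IgE stimulus 30 min 37° C versus MT-only controls; supernatant tryptase by substrate, 30 min RT.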

Row | SMILES | IC50 [1] | IC50 [2]
1 | CNC(=O)Cn1ncc2ccc(Nc3ncc(F)c(Nc4ccc5c(c4)OCCO5)n3)cc21 [R935212, N4-(3,4-ethylenedioxyphenyl)-5-fluoro-N2-[1-(N-methylaminocarbonyl)methyl-indazoline-6-yl]-2,4-pyrimidinediamine] | > 10 µM | 1.43 µM
2 | CNC(=O)c1cc(COc2cccc(Nc3ncc(F)c(Nc4ccc5c(c4)OCCO5)n3)c2)co1 [R935213, N4-(3,4-ethylenedioxyphenyl)-5-fluoro-N2-[3-(2-(N-methylamino)carbonyl-fur-4-yl)methyleneoxyphenyl]-2,4-pyrimidinediamine] | 10 µM | 0.619 µM
3 | COc1cc(Nc2ncc(F)c(Nc3ccc4c(cnn4C)c3)n2)cc(OC)c1 [R935214, 5-Fluoro-N2-(3,5-dimethoxyphenyl)-N4-(1-methyl-indazoline-5-yl)-2,4-pyrimidinediamine] | 5.5 µM | 0.453 µM
4 | COC(=O)Cn1ncc2ccc(Nc3nc(Nc4ccc(OC(C)C)cc4)ncc3F)cc21 [R935218, 5-Fluoro-N2-(4-isopropoxyphenyl)-N4-[1-(methoxycarbonyl)methyl-indazoline-6-yl]-2,4-pyrimidinediamine] | > 10 µM | 4.71 µM
5 | COC(=O)Cn1ncc2ccc(Nc3nc(Nc4ccc5c(c4)OCCO5)ncc3F)cc21 [R935219, N2-(3,4-Ethylenedioxyphenyl)-5-fluoro-N4-[1-(methoxycarbonyl)methyl-indazoline-6-yl]-2,4-pyrimidinediamine] | > 10 µM | 5.41 µM
6 | COC(=O)Cn1ncc2ccc(Nc3nc(Nc4cccc(O)c4)ncc3F)cc21 [R935220, 5-Fluoro-N2-(3-hydroxyphenyl)-N4-[1-(methoxycarbonyl)methyl-indazoline-6-yl]-2,4-pyrimidinediamine] | > 10 µM | 3.79 µM
7 | CNC(=O)Cn1ncc2cc(Nc3ncc(F)c(Nc4ccc5c(c4)OCCO5)n3)ccc21 [R935240, N4-(3,4-Ethylenedioxyphenyl)-5-fluoro-N2-[1-(N-methylaminocarbonyl)methyl-indazoline-5-yl]-2,4-pyrimidinediamine] | > 10 µM | 0.606 µM
8 | COC(=O)Cn1ncc2cc(Nc3nc(Nc4ccc(OC(C)C)cc4)ncc3F)ccc21 [R935242, 5-Fluoro-N2-(4-isopropoxyphenyl)-N4-[1-(methoxycarbonyl)methyl-indazoline-5-yl]-2,4-pyrimidinediamine] | > 10 µM | 2.85 µM
9 | OCCn1ncc2ccc(Nc3ncc(F)c(Nc4ccc5c(c4)OCCO5)n3)cc21 [R935248, N4-(3,4-Ethylenedioxyphenyl)-5-fluoro-N2-[1-(2-hydroxyethyl)indazoline-6-yl]-2,4-pyrimidinediamine] | > 10 µM | 1.1 µM
10 | COC(=O)Cn1ncc2cc(Nc3nc(Nc4ccc5c(c4)OCCO5)ncc3F)ccc21 [R935249, N2-(3,4-Ethylenedioxyphenyl)-5-fluoro-N4-[1-(methoxycarbonyl)methyl-indazoline-5-yl]-2,4-pyrimidinediamine] | > 10 µM | 1.1 µM
11 | COC(=O)Cn1ncc2cc(Nc3nc(Nc4cccc(O)c4)ncc3F)ccc21 [R935250, 5-Fluoro-N2-(3-hydroxyphenyl)-N4-[1-(methoxycarbonyl)methyl-indazoline-5-yl]-2,4-pyrimidinediamine] | > 10 µM | 1.1 µM
12 | CC(C)Oc1ccc(Nc2nc(Nc3ccc4c(cnn4CCO)c3)ncc2F)cc1 [R935255, 5-Fluoro-N2-[1-(2-hydroxyethyl)indazoline-5-yl]-N4-(4-isopropoxyphenyl)-2,4-pyrimidinediamine] | > 10 µM | 0.374 µM
13 | OCCn1ncc2cc(Nc3ncc(F)c(Nc4cccc(O)c4)n3)ccc21 [R935256, 5-Fluoro-N2-[1-(2-hydroxyethyl)indazoline-5-yl]-N4-(3-hydroxyphenyl)-2,4-pyrimidinediamine] | > 10 µM | 0.324 µM
14 | OCCn1ncc2cc(Nc3nc(Nc4ccc5c(c4)OCCO5)ncc3F)ccc21 [R935258, N2-(3,4-Ethylenedioxyphenyl)-5-fluoro-N4-[1-(2-hydroxyethyl)indazoline-5-yl]-2,4-pyrimidinediamine] | > 10 µM | 1.19 µM
15 | OCCn1ncc2cc(Nc3nc(Nc4cccc(O)c4)ncc3F)ccc21 [R935259, 5-Fluoro-N4-[1-(2-hydroxyethyl)indazoline-5-yl]-N2-(3-hydroxyphenyl)-2,4-pyrimidinediamine] | > 10 µM | 1.78 µM
16 | Fc1cnc(Nc2ccc3c(c2)OCCO3)nc1Nc1ccc2cn[nH]c2c1 [R935261, N2-(3,4-Ethylenedioxyphenyl)-5-fluoro-N4-(indazoline-6-yl)-2,4-pyrimidinediamine] | > 10 µM | 0.391 µM
17 | Oc1cccc(Nc2ncc(F)c(Nc3ccc4cn[nH]c4c3)n2)c1 [R935262, 5-Fluoro-N2-(3-hydroxyphenyl)-N4-(indazoline-6-yl)-2,4-pyrimidinediamine] | > 10 µM | 0.516 µM
18 | Cc1cc(Nc2ncc(F)c(Nc3ccc4cn[nH]c4c3)n2)cc(Cl)c1O [R935264, N2-(3-Chloro-4-hydroxy-3-methylphenyl)-5-fluoro-N4-(indazoline-6-yl)-2,4-pyrimidinediamine] | > 10 µM | 0.135 µM
19 | CNC(=O)COc1cccc(Nc2ncc(F)c(Nc3ccc4[nH]ncc4c3)n2)c1 [R935279, 5-Fluoro-N4-(indazoline-5-yl)-N2-[3-(N-methylaminocarbonylmethyleneoxy)phenyl]-2,4-pyrimidinediamine] | > 10 µM | 0.889 µM
20 | CNC(=O)COc1cccc(Nc2ncc(F)c(Nn3cccc3)n2)c1 [R935281, 5-Fluoro-N2-[3-(N-methylaminocarbonylmethyleneoxy)phenyl]-N4-(1H-pyrrol-1-yl)-2,4-pyrimidinediamine] | > 10 µM | 1.4 µM
21 | CCOC(=O)CCn1ncc2ccc(Nc3ncc(F)c(Nc4ccc5c(c4)OCCO5)n3)cc21 [R935286, N2-[1-(2-ethoxycarbonylethyl)indazoline-6-yl]-N4-(3,4-ethylenedioxyphenyl)-5-fluoro-2,4-pyrimidinediamine] | > 10 µM | 1.16 µM
22 | OCCCn1ncc2ccc(Nc3ncc(F)c(Nc4ccc5c(c4)OCCO5)n3)cc21 [R935287, N4-(3,4-Ethylenedioxyphenyl)-5-fluoro-N2-[1-(3-hydroxypropyl)indazoline-6-yl]-2,4-pyrimidinediamine] | > 10 µM | 0.403 µM

Now from value to compound:

Row | IC50 [1] | IC50 [2] | SMILES
23 | > 10 µM | 1.58 µM | CNC(=O)CCn1ncc2ccc(Nc3nc(Nc4ccc5c(c4)OCCO5)ncc3F)cc21 [R935288, N2-(3,4-Ethylenedioxyphenyl)-5-fluoro-N4-[1-[2(N-methylaminocarbonyl)ethyl]-indazoline-6-yl]-2,4-pyrimidinediamine]
24 | > 10 µM | 1.69 µM | CCOC(=O)CCn1ncc2ccc(Nc3nc(Nc4cccc(OC(C)C)c4)ncc3F)cc21 [R935289, N4-[1-(2-Ethoxycarbonylethyl)indazoline-6-yl]-5-fluoro-N2-(isopropoxyphenyl)-2,4-pyrimidinediamine]
25 | > 10 µM | 0.34 µM | CC(C)Oc1ccc(Nc2nc(Nc3ccc4cnn(CCCO)c4c3)ncc2F)cc1 [R935290, 5-Fluoro-N2-[1-(3-hydroxypropyl)indazoline-6-yl]-N4-(4-isopropoxyphenyl)-2,4-pyrimidinediamine]
26 | > 10 µM | 1.36 µM | CNC(=O)CCn1ncc2ccc(Nc3ncc(F)c(Nc4ccc(OC(C)C)cc4)n3)cc21 [R935291, 5-Fluoro-N4-(4-isopropoxyphenyl)-N2-[1-[2(N-methylamino)carbonyl]ethyl-indazoline-6-yl]-2,4-pyrimidinediamine]
27 | > 10 µM | 0.388 µM | CNC(=O)CCn1ncc2ccc(Nc3ncc(F)c(Nc4cccc(O)c4)n3)cc21 [R935294, 5-Fluoro-N4-(3-hydroxyphenyl)-N2-[1-[2-(N-methylaminocarbonyl)ethyl]-indazoline-6-yl]-2,4-pyrimidinediamine]
28 | > 10 µM | 1.94 µM | CCOC(=O)CCn1ncc2ccc(Nc3nc(Nc4ccc5oc(C(=O)OC)cc5c4)ncc3F)cc21 [R935295, N4-[1-(2-Ethoxycarbonylethyl)indazoline-6-yl]-5-fluoro-N2-(2-methoxycarbonylbenzofur-5-yl)-2,4-pyrimidinediamine]
29 | > 10 µM | 7.33 µM | CNC(=O)CCn1ncc2ccc(Nc3ncc(F)c(Nc4ccc5oc(C(=O)NC)cc5c4)n3)cc21 [R935297, 5-Fluoro-N4-[2-(N-methylaminocarbonyl)benzofuran-5-yl]-N2-[1-[2(N-methylaminocarbonyl)ethyl]-indazoline-6-yl]-2,4-pyrimidinediamine]
30 | > 10 µM | 0.21 µM | Cn1cc2cc(Nc3ncc(F)c(Nc4cccc(O)c4)n3)ccc2n1 [R935299, 5-Fluoro-N4-(3-hydroxyphenyl)-N2-(2-methy-indazoline-5-yl)-2,4-pyrimidinediamine]
31 | > 10 µM | 0.243 µM | Cn1cc2cc(Nc3ncc(F)c(Nc4ccc5c(c4)OCCO5)n3)ccc2n1 [R935300, N4-(3,4-Ethyelenedioxyphenyl)-5-fluoro-N2-(2-methy-indazoline-5-yl)-2,4-pyrimidinediamine]
32 | > 10 µM | 0.189 µM | OCCCn1ncc2cc(Nc3ncc(F)c(Nc4ccc5c(c4)OCCO5)n3)ccc21 [R935302, N4-(3,4-Ethylenedioxyphenyl)-5-fluoro-N2-[1-(3-hydroxypropyl)indazoline-5-yl]-2,4-pyrimidinediamine]
33 | > 10 µM | 0.188 µM | OCCCn1ncc2cc(Nc3ncc(F)c(Nc4cccc(O)c4)n3)ccc21 [R935304, 5-Fluoro-N4-(3-hydroxyphenyl)-N2-[1-(3-hydroxypropyl)indazoline-5-yl]-2,4-pyrimidinediamine]
34 | > 10 µM | 0.495 µM | CNC(=O)CCn1ncc2cc(Nc3ncc(F)c(Nc4cccc(O)c4)n3)ccc21 [R935305, 5-Fluoro-N4-(3-hydroxyphenyl)-N2-[1-[2(N-methylaminocarbonyl)ethyl]-indazoline-5-yl]-2,4-pyrimidinediamine]
